Measured values: patent US20050090480A1, “Use of selected amino acid-zinc complexes as anti-malarials” (Council of Scientific & Industrial Research, priority 2003, published 2005)

How the values were obtained:
[1] = test system: chloroquine-resistant (W2Mef) strain of P. falciparum
Protocol: The W2Mef strain was used for these experiments. […] The following was the protocol for present experiment.
In the present study, Chloroquine-sensitive (3D7) strain and chloroquine-resistant (W2Mef) strain were used. The cultures were maintained in vitro using culture media consisting of standard RPMI-1640 supplemented with 10% heat inactivated Human Type O^+ Serum, 3.6% NaHCO3 at a hematocrit of 4%. All the assays were carried out in 96 well, flat bottom microtitre plates. For the synchronization of cultures, 5% sorbitol was used. The growth of the parasite was measured with incorporation of Hypoxanthine. A 200 μl volume of the culture parasite was added to each well initially. Different antimalarial compounds at varied concentrations were added to the wells. All the compounds were tested on both chloroquine-sensitive and chloroquine resistant strains. The plates were then placed in an airtight chamber and flushed with the gas mixture (5% CO2, 5% O2 and 90% N2). The plates were finally stored in an incubator at 37° C. for 24 hours.
At the end of the incubation period, 5 μl of diluted ^3H-Hypoxanthine—to a final concentration of 1 μCi—was added to each well. The plates were then returned to the airtight chamber and then flushed with the above gas mixture and incubated for an additional 24 hours. The plates were then stored at −70° C. until required for detection of incorporated radioactivity. When necessary, the plates were thawed and the cells were harvested onto filter-mats. These filter-mats were then dried and sealed.

[2] = test system: W2Mef; conditions: FIG. 8
[3] = test system: Plasmodium yeoeli
From the text: For these experiments, the mouse malaria parasite Plasmodium yeoeli was used as this strain is considered to be closer to human parasite, P. falciparum. Groups of eight mice each were infected with 10^6 parasites/mouse through an intra-peritoneal injection. […] The drug was given once a day for a total period of six days. The mice were then left alone for an additional period of three days, after which the number of survivors were counted (i.e. at […] after infection). The results are shown here in FIG. 5. Group 1 represents a control group of uninfected mice, with no drug given. Group 3 represents the group of infected mice, again with no drug given (i.e. vehicle only).

[4] = test system: 3D7 strain of P. falciparum; conditions: light microscope (FIG. 3)
Protocol: In this experiment, slides were prepared, stained with Giemsa and examined under a light microscope. Representative pictures are show in FIG. 3.

[5] = test system: P. falciparum; test: P. falciparum in vitro culture, parasitemia by Giemsa stained smear after 48 hrs; format: cell-based, Plasmodium falciparum; conditions: for inhibition of growth of P. falciparum: 10 μM concentration, 48 hrs incubation at 37° C.
Protocol: Selective enrichment of activity was monitored at every step using P. falciparum culture for in vitro studies.
Zinc complex of L-proline was dissolved in normal saline and filter sterilized. The compound was added to the parasite culture at different concentrations ranging from 1- 10 μM. The compound was tested at the indicated doses using the experimental protocol as described below:
Protocol for Testing the Effect of Drug on P. falciparum for In Vitro Studios
The P. falciparum cultures were synchronized at first by sorbitol treatment. The compound of various concentrations was added to the 200 μl of synchronized P. falciparum culture (1% parasitemia). The parasitemia was checked by making Giemsa stained smear after 48 hrs of incubation at 37° C.

[6] = test system: P. berghei; conditions: about 1 mg to 50 mg/kg
Protocol: BALB/c mice (4-6 weeks old) were infected with 10^5 P. berghei parasites/mouse. […] After four days of infection, various concentrations of compound, at the doses of 10 mg/kg (Group 2) and 20 mg/kg (Group 3) body weight was injected to the mice. The control group (Group 1) indicates the group of mice infected with the parasite, but without any drug (i.e. vehicle only). Group 4 represents a group of infected mice treated with Pyrimethamine (at 20 mg/kg body weight) using an identical treatment regimen. Each group contained ten mice and the parasitemia levels—obtained from blood smears—are given as a percentage of that obtained in untreated mice (FIG. 4).

## CCN(CC)CCCC(C)Nc1ccnc2cc(Cl)ccc12 (centres unmarked) [chloroquine, Chloroquine, reference compound]
[1]; FIG. 6
  increase in the IC50 value for chloroquine, W2Mef compared with 3D7 strain: near sevenfold increase

## Zinc complex of L-proline [PIZ2]
[1]; dose response analysis, 3D7 and W2Mef (FIG. 7)
  potency against chloroquine-sensitive versus chloroquine-resistant strain: remained identical
[1]; preliminary experiments and dose response analysis
  activity against the chloroquine resistant strain-W2Mef: active
[2]
  manner of action on W2Mef: direct killing
[3]; about 1 mg to 50 mg/Kg
  inhibits growth of P. yeoeli: about 90%
[3]; oral 20 mg/kg body weight once a day for six days, counted twelve days after infection
  percentage of survivors: 88%
[4]
  effect on the parasite in stained slides: significant disintegration of the parasite
[5]
  inhibition of growth of P. falciparum: > 80%
[5]; about 5 μM to 10 μM
  inhibits growth of P. facliparum: about 100%
[6]
  inhibits growth of P. berghei: about 80%

## Zinc complexes of L-histidine [Zinc complex of L-histidine]
[5]
  inhibition of growth of P. falciparum: ~85%
